From patent US20180117103A1, “COMPOSITION FOR ANTIOXIDATION AND IMPROVEMENT OF SKIN CONDITIONS” (CELL BIOTECH CO., LTD., priority 2016, published 2018) come the findings set out here.

Series [1] is described as follows: Weight change of white rats on oral administration of probiotics and vitamin C (Test Example 1). The conditions noted are these: N = 5. It counts as in vivo, white rats (male, SD rats). As to the method:
In order to verify the effect of a combination of probiotics and vitamin C on anti-aging and the like, 4-week-old white rats (male, SD rats, Saeronbio, Korea) were purchased. Two of the animals were housed in each polypropylene cage and acclimated for one week while they were allowed access to feed and water ad libitum. In addition, the animals were housed at a temperature of 24±2° C. and a relative humidity of 40±20% with a 12-hr light/12-hr dark cycle. During the acclimation period, the health of the rats was checked, and among these rats, animals whose activity was not reduced were selected and used in subsequent tests. […] In order to examine the stability and phenotype of each white rat when the probiotics and the vitamin C were administered to the test animals for 5 weeks in Example 1, the weight change patterns of the white rats during the period from the day before administration to 5 weeks after the start of administration in Example 1 were measured, and the results of the measurement are shown in Table 2 below.

Series [2] deals with superoxide dismutase (SOD). Briefly: Activity of superoxide dismutase in serum of white rats, colorimetric assay kit (Test Example 2). It counts as in vivo, white rats (male, SD rats). Particulars: oral administration for 5 weeks. As to the method:
In order to examine the change in antioxidant activity by administration of probiotics and vitamin C (group G4) according to the present invention, antioxidant enzyme activity and serum vitamin levels were measured in the following manner. Blood was collected from the orbits of the white rats of Example 1. The collected blood was incubated at room temperature for 2 hours, and then centrifuged at 1500×g at 4° C. for 15 minutes to separate sera, and the separated sera were stored at −80° C. until use in experiments. For measurement of the activity of antioxidant enzyme in the separated sera, the activity of superoxide dismutase in the sera was measured using a superoxide dismutase assay kit based on a colorimetry assay, and the results of the measurement are shown in FIG. 1 and Table 3 below.

Series [3] relates to total antioxidant capacity (TAS). Briefly: Total antioxidant capacity (TAS) in serum of white rats, colorimetric kit (Test Example 2). It counts as in vivo, white rats (male, SD rats). The conditions noted are these: oral administration for 5 weeks. As to the method:
In order to examine the change in antioxidant activity by administration of probiotics and vitamin C (group G4) according to the present invention, antioxidant enzyme activity and serum vitamin levels were measured in the following manner. Blood was collected from the orbits of the white rats of Example 1. The collected blood was incubated at room temperature for 2 hours, and then centrifuged at 1500×g at 4° C. for 15 minutes to separate sera, and the separated sera were stored at −80° C. until use in experiments. In order to measure the defense system composed of antioxidant vitamins, non-enzymatic antioxidant substances and antioxidant enzymes, which defend against the toxicity of reactive oxygen species and total antioxidant capacity (TAS) values were measured using a kit of measuring antioxidant activity based on a colorimetry assay.

A short description of series [4]: Vitamin C levels in sera of white rats by HPLC. It counts as in vivo. Particulars: male, SD, rat, 1000 mg/head, serum of white rats, oral administration for 5 weeks, read-out: Vit C (serum vitamin C level), Mean ± SD. The method, then: Blood was collected from the orbits of the white rats of Example 1. The collected blood was incubated at room temperature for 2 hours, and then centrifuged at 1500×g at 4° C. for 15 minutes to separate sera, and the separated sera were stored at −80° C. until use in experiments.
For measurement of vitamin C levels in the sera of the white rats prepared in Example 1, high-performance liquid chromatography (HPLC) analysis was performed using a vitamin C reagent kit, and the results of the analysis are shown in FIG. 3 and Table 5 below.

The subject of the next series is L. rhamnosus. Briefly: Distribution of L. rhamnosus in feces of white rats by real-time PCR (Test Example 4). In kind it is in vivo, white rats (male, SD rats). Particulars: intestinal feces at 5 weeks after oral administration. As to the method: (§1) In order to examine the change in intestinal microorganisms by administration of probiotics and vitamin C according to the present invention, expression of genesspecific for L. rhamnosus and E. faecium in the test groups (G1 to G4) prepared in Example 1 was measured.
(§2) At 5 weeks after oral administration in Example 1, intestinal feces were isolated from the rats of G1 to G4, and DNA was extracted using an MP bio stool kit according to the manufacturer's protocol. Using the extracted DNA, real-time polymerase chain reaction (PCR) was performed using primers specific for L. rhamnosus and E. faecium. The results are shown in FIGS. 4 and 5 and Tables 6 and 7 below.
On the technique in general: In qPCR the cycle at which signal appears reflects the starting amount.

For another series, the system named is E. faecium. Briefly: Distribution of E. faecium in feces of white rats by real-time PCR (Test Example 4). It counts as in vivo, white rats (male, SD rats). Particulars: intestinal feces at 5 weeks after oral administration. As to the method:
as §1, §2

Structures are written as SMILES.

Turning to `O=C1O[C@H]([C@@H](O)CO)C(O)=C1O` [G3, L-ascorbic acid], the “Change in weight, Mean” value stood at 137.6 g in series [1] (0 week (day before administration), oral); 178.8 g in series [1] (1 week of oral administration); 237.8 g in series [1] (2 weeks of oral administration); 293.0 g in series [1] (3 weeks of oral administration); 338.1 g in series [1] (4 weeks of oral administration); 354.1 g in series [1] (5 weeks of oral administration). For the same molecule, the “SOD, Mean ± SD” value in series [2] was 6.248 ± 0.08967 U/L. In addition, in series [3], the “TAS, Mean ± SD” value was determined as 1.568 ± 0.01708 mmol/L. In series [4], the concentration at 5 weeks stood at 32.5 ± 1.29 µM. The “L. rhamnosus, Mean ± SD” value in the series on L. rhamnosus stood at 7.340 ± 0.09975 Nlog10/1 g feces. Further, the “E. faecium, Mean ± SD” value in the series on E. faecium was 7.032 ± 0.1134 Nlog10/1 g feces.
